pIC50: −log10 of the molar value. One block for each molecule: values may come before it.
Columns and labels:
Assay in all cases: In vitro enzymatic profiling, HotSpot assay platform
Type in all cases: biochemical
CSNK2A1 = molecular target: T1, CSNK2A1 (Homo sapiens, UniProt P68400); settings: inhibitor 10 μM, ATP 10 μM, duplicate, read-out: IC50 (bioactivity in the kinome picture)
T1 construct: purchased Reaction Biology Corporation
Procedure: In vitro enzymatic profiling of the 32 member kinase panel was performed at Reaction Biology Corporation (http://www.reactionbiology.com, Malvern, PA) using the "HotSpot" assay platform. […]

CHEK2 = molecular target: T2, CHEK2 (Homo sapiens, UniProt O96017); settings: inhibitor 10 μM, ATP 10 μM
T2 construct: purchased Reaction Biology Corporation
Procedure: (§1) In vitro enzymatic profiling of the 32 member kinase panel was performed at Reaction Biology Corporation (http://www.reactionbiology.com, Malvern, PA) using the "HotSpot" assay platform. Each kinase activity assay was performed in duplicate with inhibitor concentration of 10 μM and an ATP concentration of 10 μM.

FGFR1 = molecular target: T3, FGFR1 (Homo sapiens, UniProt P11362); settings: inhibitor 10 μM, ATP 10 μM; for pIC50: duplicate, read-out: IC50 (bioactivity in the kinome picture)
T3 construct: purchased Reaction Biology Corporation
Procedure: as §1

LIMK1 = molecular target: T4, LIMK1 (Homo sapiens, UniProt P53667); settings: inhibitor 10 μM, ATP 10 μM
T4 construct: purchased Reaction Biology Corporation
Procedure: as §1

CAMK2G = molecular target: T5, CAMK2G (Homo sapiens, UniProt Q13555); settings: inhibitor 10 μM, ATP 10 μM, duplicate, read-out: IC50 (bioactivity in the kinome picture)
T5 construct: purchased Reaction Biology Corporation
Procedure: In vitro enzymatic profiling of the 32 member kinase panel was performed at Reaction Biology Corporation (http://www.reactionbiology.com, Malvern, PA) using the "HotSpot" assay platform. Each kinase activity assay was performed in duplicate with inhibitor concentration of 10 μM and an ATP concentration of 10 μM. […] Another compound JMY84 could also be used as drug candidates of colorectal cancer due to its effects on CHEK2, LIMK1, and FGFR1 (Figures 5D and 5E).

IGF1R = molecular target: T6, IGF1R (Homo sapiens, UniProt P08069); settings: inhibitor 10 μM, ATP 10 μM; for pIC50: duplicate, read-out: IC50 (bioactivity in the kinome picture)
T6 construct: purchased Reaction Biology Corporation
Procedure: as §1

INSR = molecular target: T7, INSR (Homo sapiens, UniProt P06213); settings: inhibitor 10 μM, ATP 10 μM, duplicate, read-out: IC50 (bioactivity in the kinome picture)
T7 construct: purchased Reaction Biology Corporation
Procedure: as §1

AKT2 = molecular target: T8, AKT2 (Homo sapiens, UniProt P31751); settings: inhibitor 10 μM, ATP 10 μM
T8 construct: purchased Reaction Biology Corporation
Procedure: as §1

EGFR = molecular target: T9, EGFR (Homo sapiens, UniProt P00533); settings: inhibitor 10 μM, ATP 10 μM
T9 construct: purchased Reaction Biology Corporation
Procedure: as §1

KIT = molecular target: T10, KIT (Homo sapiens, UniProt P10721); settings: inhibitor 10 μM, ATP 10 μM
T10 construct: purchased Reaction Biology Corporation
Procedure: as §1

LCK = molecular target: T11, LCK (Homo sapiens, UniProt P06239); settings: inhibitor 10 μM, ATP 10 μM
T11 construct: purchased Reaction Biology Corporation
Procedure: as §1

MAPK3 = molecular target: T12, MAPK3 (Homo sapiens, UniProt P27361); settings: inhibitor 10 μM, ATP 10 μM
T12 construct: purchased Reaction Biology Corporation
Procedure: as §1

SRC = molecular target: T13, SRC (Homo sapiens, UniProt P12931); settings: inhibitor 10 μM, ATP 10 μM
T13 construct: purchased Reaction Biology Corporation
Procedure: as §1

T6 sequence (P08069 31-1367): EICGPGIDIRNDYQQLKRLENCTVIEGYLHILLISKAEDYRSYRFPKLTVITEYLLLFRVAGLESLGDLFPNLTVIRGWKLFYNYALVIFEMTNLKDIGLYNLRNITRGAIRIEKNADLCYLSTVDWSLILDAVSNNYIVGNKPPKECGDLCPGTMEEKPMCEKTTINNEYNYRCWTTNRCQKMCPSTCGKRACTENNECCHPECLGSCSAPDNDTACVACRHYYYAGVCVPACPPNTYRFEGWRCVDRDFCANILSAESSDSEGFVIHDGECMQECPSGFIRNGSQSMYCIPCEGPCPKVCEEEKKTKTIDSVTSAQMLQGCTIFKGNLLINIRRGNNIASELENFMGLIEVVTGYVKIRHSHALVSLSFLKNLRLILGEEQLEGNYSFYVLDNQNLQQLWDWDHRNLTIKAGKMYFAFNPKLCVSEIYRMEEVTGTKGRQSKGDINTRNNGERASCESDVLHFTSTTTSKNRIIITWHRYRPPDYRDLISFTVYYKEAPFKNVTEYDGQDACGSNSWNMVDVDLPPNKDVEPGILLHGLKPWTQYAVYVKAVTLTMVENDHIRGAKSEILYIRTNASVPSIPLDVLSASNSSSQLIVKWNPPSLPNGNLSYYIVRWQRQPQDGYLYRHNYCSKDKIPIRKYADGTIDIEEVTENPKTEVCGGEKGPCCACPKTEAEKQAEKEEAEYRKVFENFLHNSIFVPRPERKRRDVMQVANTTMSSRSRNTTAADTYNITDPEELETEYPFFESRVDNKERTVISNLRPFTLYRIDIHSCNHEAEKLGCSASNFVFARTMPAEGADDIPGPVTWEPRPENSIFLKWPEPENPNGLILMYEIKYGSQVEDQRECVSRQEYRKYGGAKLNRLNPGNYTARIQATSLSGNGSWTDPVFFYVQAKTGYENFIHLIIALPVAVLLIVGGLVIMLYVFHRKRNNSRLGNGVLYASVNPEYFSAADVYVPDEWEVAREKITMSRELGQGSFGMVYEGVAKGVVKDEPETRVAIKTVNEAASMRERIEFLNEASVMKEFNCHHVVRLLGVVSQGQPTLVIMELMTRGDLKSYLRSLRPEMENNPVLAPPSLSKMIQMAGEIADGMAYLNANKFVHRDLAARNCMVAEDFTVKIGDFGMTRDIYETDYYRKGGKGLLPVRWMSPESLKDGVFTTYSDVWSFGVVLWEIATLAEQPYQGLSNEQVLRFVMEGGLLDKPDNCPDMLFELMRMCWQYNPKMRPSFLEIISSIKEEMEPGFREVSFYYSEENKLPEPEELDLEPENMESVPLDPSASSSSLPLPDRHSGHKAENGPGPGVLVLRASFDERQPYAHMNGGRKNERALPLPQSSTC
T3 sequence (P11362 22-822): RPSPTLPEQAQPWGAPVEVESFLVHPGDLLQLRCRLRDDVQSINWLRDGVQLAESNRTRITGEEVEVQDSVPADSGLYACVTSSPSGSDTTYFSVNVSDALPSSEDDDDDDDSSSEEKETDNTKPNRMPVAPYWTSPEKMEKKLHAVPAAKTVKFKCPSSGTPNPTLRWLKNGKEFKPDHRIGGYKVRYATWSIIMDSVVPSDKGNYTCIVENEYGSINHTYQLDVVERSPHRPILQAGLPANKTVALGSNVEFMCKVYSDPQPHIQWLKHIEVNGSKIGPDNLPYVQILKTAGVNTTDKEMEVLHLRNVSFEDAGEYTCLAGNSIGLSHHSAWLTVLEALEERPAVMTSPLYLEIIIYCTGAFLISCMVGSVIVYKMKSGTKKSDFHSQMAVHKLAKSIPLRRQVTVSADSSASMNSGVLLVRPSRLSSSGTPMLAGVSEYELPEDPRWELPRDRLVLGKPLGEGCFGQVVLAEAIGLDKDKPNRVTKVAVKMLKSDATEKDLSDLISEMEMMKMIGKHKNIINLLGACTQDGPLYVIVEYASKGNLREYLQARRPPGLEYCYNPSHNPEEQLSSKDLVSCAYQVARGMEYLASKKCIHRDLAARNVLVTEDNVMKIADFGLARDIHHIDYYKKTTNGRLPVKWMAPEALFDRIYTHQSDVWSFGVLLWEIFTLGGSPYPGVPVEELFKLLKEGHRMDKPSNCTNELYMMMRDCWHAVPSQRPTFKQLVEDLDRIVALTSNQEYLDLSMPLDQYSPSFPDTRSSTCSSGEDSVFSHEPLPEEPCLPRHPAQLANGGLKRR
T13 sequence (P12931 whole entry): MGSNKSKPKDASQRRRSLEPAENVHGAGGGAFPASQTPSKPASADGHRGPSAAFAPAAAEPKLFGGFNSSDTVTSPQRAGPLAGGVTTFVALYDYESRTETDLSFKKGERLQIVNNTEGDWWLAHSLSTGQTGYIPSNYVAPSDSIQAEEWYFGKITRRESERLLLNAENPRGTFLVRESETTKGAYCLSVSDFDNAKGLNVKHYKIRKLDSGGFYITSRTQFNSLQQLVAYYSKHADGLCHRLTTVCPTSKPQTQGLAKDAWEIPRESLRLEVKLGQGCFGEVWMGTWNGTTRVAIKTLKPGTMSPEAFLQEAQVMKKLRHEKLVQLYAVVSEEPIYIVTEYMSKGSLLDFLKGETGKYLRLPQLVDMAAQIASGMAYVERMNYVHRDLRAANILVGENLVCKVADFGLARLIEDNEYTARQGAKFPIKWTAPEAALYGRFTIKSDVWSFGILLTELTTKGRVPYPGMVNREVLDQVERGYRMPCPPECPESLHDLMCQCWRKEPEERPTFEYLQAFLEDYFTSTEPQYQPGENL
T1 sequence (P68400 whole entry): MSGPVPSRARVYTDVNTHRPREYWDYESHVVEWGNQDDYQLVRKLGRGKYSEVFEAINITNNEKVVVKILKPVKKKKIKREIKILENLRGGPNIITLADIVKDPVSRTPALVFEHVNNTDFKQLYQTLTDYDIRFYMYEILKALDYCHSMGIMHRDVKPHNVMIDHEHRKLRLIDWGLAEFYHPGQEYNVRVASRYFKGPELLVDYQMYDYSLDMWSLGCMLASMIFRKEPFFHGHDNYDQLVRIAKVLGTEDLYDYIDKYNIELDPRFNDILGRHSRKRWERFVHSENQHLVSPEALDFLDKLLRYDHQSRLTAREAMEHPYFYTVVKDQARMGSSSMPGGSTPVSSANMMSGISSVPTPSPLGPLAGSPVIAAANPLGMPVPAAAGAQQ
T7 sequence (P06213 28-1382): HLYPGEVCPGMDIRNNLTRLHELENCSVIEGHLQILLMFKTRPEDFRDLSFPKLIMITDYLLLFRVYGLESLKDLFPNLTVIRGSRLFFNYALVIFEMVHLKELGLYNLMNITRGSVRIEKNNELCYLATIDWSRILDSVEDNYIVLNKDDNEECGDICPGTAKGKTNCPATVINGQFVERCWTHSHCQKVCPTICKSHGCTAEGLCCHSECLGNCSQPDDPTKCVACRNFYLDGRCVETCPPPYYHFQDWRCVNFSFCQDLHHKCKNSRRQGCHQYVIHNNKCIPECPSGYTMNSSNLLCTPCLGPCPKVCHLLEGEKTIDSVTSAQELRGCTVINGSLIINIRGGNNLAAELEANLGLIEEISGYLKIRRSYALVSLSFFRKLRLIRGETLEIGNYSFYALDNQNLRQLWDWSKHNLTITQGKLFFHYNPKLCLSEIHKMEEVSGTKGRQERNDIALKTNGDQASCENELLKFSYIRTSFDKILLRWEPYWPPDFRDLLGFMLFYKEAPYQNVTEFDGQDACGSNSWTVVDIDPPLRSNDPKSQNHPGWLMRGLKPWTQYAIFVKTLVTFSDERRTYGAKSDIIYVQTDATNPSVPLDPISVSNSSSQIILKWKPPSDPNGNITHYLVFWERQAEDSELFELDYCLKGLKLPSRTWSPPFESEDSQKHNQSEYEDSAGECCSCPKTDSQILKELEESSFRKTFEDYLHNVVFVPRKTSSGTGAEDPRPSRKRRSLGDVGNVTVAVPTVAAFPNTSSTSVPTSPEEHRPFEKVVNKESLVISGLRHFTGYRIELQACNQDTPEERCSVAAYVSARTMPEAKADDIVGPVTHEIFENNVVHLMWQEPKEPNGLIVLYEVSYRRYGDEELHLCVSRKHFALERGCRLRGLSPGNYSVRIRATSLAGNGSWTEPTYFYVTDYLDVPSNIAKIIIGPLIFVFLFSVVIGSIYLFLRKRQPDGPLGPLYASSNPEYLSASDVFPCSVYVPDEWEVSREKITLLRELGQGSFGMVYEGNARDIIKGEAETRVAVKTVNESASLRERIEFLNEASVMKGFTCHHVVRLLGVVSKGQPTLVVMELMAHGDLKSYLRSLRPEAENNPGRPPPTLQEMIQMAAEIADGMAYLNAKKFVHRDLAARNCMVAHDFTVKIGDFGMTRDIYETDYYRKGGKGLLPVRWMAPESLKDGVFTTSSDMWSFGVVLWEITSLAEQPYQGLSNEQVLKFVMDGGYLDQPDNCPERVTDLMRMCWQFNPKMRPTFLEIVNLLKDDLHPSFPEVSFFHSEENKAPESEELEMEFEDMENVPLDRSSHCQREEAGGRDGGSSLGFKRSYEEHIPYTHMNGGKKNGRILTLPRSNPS
T8 sequence (P31751 whole entry): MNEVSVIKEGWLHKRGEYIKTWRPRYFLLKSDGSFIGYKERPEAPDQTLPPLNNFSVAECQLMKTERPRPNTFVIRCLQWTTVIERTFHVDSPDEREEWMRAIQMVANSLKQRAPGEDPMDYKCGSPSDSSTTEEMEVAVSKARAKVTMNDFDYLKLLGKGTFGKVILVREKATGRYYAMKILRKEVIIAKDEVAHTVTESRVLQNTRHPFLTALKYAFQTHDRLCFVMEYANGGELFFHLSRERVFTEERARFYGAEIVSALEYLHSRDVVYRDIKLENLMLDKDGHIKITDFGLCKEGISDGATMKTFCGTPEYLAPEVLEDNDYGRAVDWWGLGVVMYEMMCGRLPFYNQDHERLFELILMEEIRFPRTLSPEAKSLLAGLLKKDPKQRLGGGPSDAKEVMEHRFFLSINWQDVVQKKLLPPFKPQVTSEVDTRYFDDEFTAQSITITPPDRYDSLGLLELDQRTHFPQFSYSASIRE

- pIC50 (CSNK2A1): ~6.00
- effect on kinase (in words) (CHEK2): effects
- effect on kinase (in words) (FGFR1): effects
- effect on kinase (in words) (LIMK1): effects
Compound: O=c1c(O)c(-c2ccc(OC3OC(CO)C(O)[C@@H](O)C3O)c(O)c2)oc2cc(O)cc(O)c12 (stereo partly drawn) [JMY84]

- pIC50 (FGFR1): ~6.00
- pIC50 (CAMK2G): ~6.00
Compound: O=c1c(O)c(-c2ccc(O)c(O)c2)oc2cc(O)cc(O)c12 [Quercetin, quercetin, reference compound]

Compound: O=c1cc(-c2ccccc2)oc2cc(O)c(O)c(O)c12 [JMY51]
- pIC50 (FGFR1): ~5.52
- pIC50 (IGF1R): ~6.00
- pIC50 (INSR): ~5.70

- inhibitory effect (in words) (AKT2): inhibitory effects
- inhibitory effect (in words) (EGFR): inhibitory effects
- inhibitory effect (in words) (IGF1R): inhibitory effects
- pIC50 (IGF1R): ~7.00
- inhibitory activity (in words) (KIT): inhibitory activities
- inhibitory activity (in words) (LCK): inhibitory activities
- inhibitory effect (in words) (MAPK3): inhibitory effects
- inhibitory activity (in words) (SRC): inhibitory activities
- pIC50 (SRC; duplicate, read-out: IC50 (bioactivity in the kinome picture)): ~6.30
Compound: O=C(Oc1cc(O)c2c(c1)OC(c1ccc(O)c(O)c1)C(O)C2)c1cc(O)c(O)c(O)c1 (stereo not drawn) [JMY65]
